Results reported in patent US20230131899A1, “INHIBITORS OF MICROBIALLY INDUCED AMYLOID” (Axial Therapeutics, Inc., priority 2020, published 2023).
Read-outs that look alike come from different tables or passages of the source.

Legend:
[1] = tested on: CsgA gene expression (csgBAC promoter-GFP reporter) in E. coli UTI89; assay: In vitro live cell fluorescent reporter assay of CsgA transcription (Reporter Assay); format: cell-based
Summary of the method: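 Compounds at 0.14–100 μM (1% DMSO final) incubated 20 h at 27 °C in YESCA broth with UTI89 carrying a single-copy GFP reporter under the csgBAC intergenic promoter region, inoculum OD600 0.003. Fluorescence normalized to vehicle wells gave IC50 and 50%-of-vehicle concentration; OD600 reduction >10% flagged growth impact.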

E. coli CsgA = biological target: T1, E. coli CsgA (Escherichia coli, UniProt P28307); assay: In vitro ThioflavinT assay of CsgA aggregation (CsgA ThT Assay); format: biochemical
T1 construct: made in house; host or cells: E. coli NEB 3016 slyD::kan, pET11d
Summary of the method: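 Purified C-terminal His-tagged CsgA, monomerised by desalting and 30-kDa filtration, at 2-20 μM with 20-40 μM ThT in 50 mM potassium phosphate pH 7.3, 1% DMSO, compounds 3.125-200 uM; room temperature, fluorescence (ex 438/em 495 nm) read every 15 min. Background-subtracted signal expressed as percent inhibition versus vehicle at 6-6.5 or 8-9 h, or as percent control AUC.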

[2] = Escherichia coli, read-out: Reporter Assay Abs IC50 (μM), median Abs IC50 in the CsgA reporter assay, N/A = maximum expression reduction is <50% of control
[3] = Escherichia coli, read-out: Reporter Assay Abs IC50, activity range, class symbol
[4] = read-out: CsgA ThT Assay (2 μM CsgA) % Control Bmax 25 μM, activity range, class symbol, CsgA 2 μM, white plates, compound 25 μM
[5] = read-out: CsgA ThT Assay (2 μM CsgA) % Control Bmax 25 μM, mean Bmax as percentage of DMSO control, CsgA 2 μM, white plates, compound 25 μM
[6] = read-out: CsgA ThT Assay (2 μM CsgA) % Control Bmax 100 μM, activity range, class symbol, CsgA 2 μM, white plates, compound 100 μM
[7] = read-out: CsgA ThT Assay (2 μM CsgA) % Control Bmax 100 μM, mean Bmax as percentage of DMSO control, CsgA 2 μM, white plates, compound 100 μM
[8] = Escherichia coli, read-out: Reporter Assay Abs IC50 (activity range), median Abs IC50 in the CsgA reporter assay, class symbol
[9] = read-out: CsgA ThT Assay (10 μM CsgA) % Control AUC at 1005 minutes, 25 μM (activity range), CsgA 10 μM, black plates, compound 25 μM, 1005 minutes, class symbol
[10] = read-out: CsgA ThT Assay (10 μM CsgA) % Control AUC at 1005 minutes, 25 μM, mean AUC as % of DMSO control, CsgA 10 μM, black plates, compound 25 μM, 1005 minutes
[11] = read-out: CsgA ThT Assay (10 μM CsgA) % Control AUC at 1005 minutes, 100 μM (activity range), CsgA 10 μM, black plates, compound 100 μM, 1005 minutes, class symbol
[12] = read-out: CsgA ThT Assay (10 μM CsgA) % Control AUC at 1005 minutes, 100 μM, mean AUC as % of DMSO control, CsgA 10 μM, black plates, compound 100 μM, 1005 minutes

T1 sequence (P28307 23-151): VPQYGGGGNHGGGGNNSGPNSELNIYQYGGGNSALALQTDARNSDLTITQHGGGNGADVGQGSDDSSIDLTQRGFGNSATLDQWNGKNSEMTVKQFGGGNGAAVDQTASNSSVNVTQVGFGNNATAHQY

| Compound | IC50 [1, 2] | IC50 [1, 8] | remaining activity at 25 µM (E. coli CsgA; [9]) | remaining activity at 25 µM (E. coli CsgA; [10]) | remaining activity at 100 µM (E. coli CsgA; [11]) | remaining activity at 100 µM (E. coli CsgA; [12]) | also measured |
| --- | --- | --- | --- | --- | --- | --- | --- |
| O=C(O)[C@@H]1CN(Cc2ccccc2)c2c(-c3cccc(C(F)(F)F)c3)c(Cc3cccc4ccccc34)c(Br)c(=O)n21 (single isomer, unassigned) [Compound 189] | 1.4 µM | – | – | – | – | – | IC50 [1, 3]: 1.3 to 4.5 µM; remaining activity at 25 µM (E. coli CsgA; [4]): 31 to 60%; remaining activity at 25 µM (E. coli CsgA; [5]): 58%; remaining activity at 100 µM (E. coli CsgA; [6]): 31 to 60%; remaining activity at 100 µM (E. coli CsgA; [7]): 49% |
| CN1CC(C(=O)O)n2c(c(-c3cccc(C(F)(F)F)c3)c(Cc3cccc4ccccc34)c(CO)c2=O)S1(=O)=O (stereo not shown) [Compound 077, 7-(hydroxymethyl)-2-methyl-8-(naphthalen-1-ylmethyl)-6-oxo-9-(3-(trifluoromethyl)phenyl)-3,4-dihydro-2H,6H-pyrido[1,2-e][1,2,5]thiadiazine-4-carboxylic acid 1,1-dioxide] | 51.6 µM | > 10 µM | > 60% | 97% | > 60% | 87% | – |
| O=C(O)CC1CS(=O)(=O)c2c(-c3cccc(C(F)(F)F)c3)c(Cc3cccc4ccccc34)cc(=O)n21 (stereo not shown) [Compound 130, 2-(7-(naphthalen-1-ylmethyl)-1,1-dioxido-5-oxo-8-(3-(trifluoromethyl)phenyl)-2,3-dihydro-5H-thiazolo[3,2-a]pyridin-3-yl)acetic acid] | 14.8 µM | > 10 µM | 31 to 60% | 49% | 11 to 31% | 15% | – |
| O=C(O)C1CN(Cc2ccccc2)c2c(-c3cccc(C(F)(F)F)c3)c(CN3CCCc4ccccc43)c(Cl)c(=O)n21 (stereo not shown) [Compound 217, 1-benzyl-6-chloro-7-((3,4-dihydroquinolin-1 (2H)-yl)methyl)-5-oxo-8-(3-(trifluoromethyl)phenyl)-1,2,3,5-tetrahydroimidazo[1,2-a]pyridine-3-carboxylic acid] | 1.1 µM | – | – | – | – | – | IC50 [1, 3]: < 1.3 µM; remaining activity at 25 µM (E. coli CsgA; [4]): > 60%; remaining activity at 25 µM (E. coli CsgA; [5]): 65% |
| C=Cc1c(Cc2cccc3ccccc23)c(-c2cccc(C(F)(F)F)c2)c2n(c1=O)C(C(=O)O)CN(C)S2(=O)=O (stereo not shown) [Compound 078, 2-methyl-8-(naphthalen-1-ylmethyl)-6-oxo-9-(3-(trifluoromethyl)phenyl)-7-vinyl-3,4-dihydro-2H,6H-pyrido[1,2-e][1,2,5]thiadiazine-4-carboxylic acid 1,1-dioxide] | 5.1 µM | 4.6 to 10 µM | 11 to 31% | 19% | 11 to 31% | 12% | – |
| Nc1c(Cc2cccc3ccccc23)c(-c2cccc(C(F)(F)F)c2)c2n(c1=O)C(C(=O)O)CN(C[C@H](O)[C@@H](O)[C@H](O)[C@H](O)CO)S2(=O)=O (stereo partly drawn) [Compound 105, 7-amino-8-(naphthalen-1-ylmethyl)-6-oxo-2-((2S,3R,4R,5R)-2,3,4,5,6-pentahydroxyhexyl)-9-(3-(trifluoromethyl)phenyl)-3,4-dihydro-2H,6H-pyrido[1,2-e][1,2,5]thiadiazine-4-carboxylic acid 1,1-dioxide] | 36 µM | > 10 µM | > 60% | 102% | > 60% | 70% | – |
| CCN1CC(C(=O)O)n2c(c(-c3cccc(C(F)(F)F)c3)c(Cc3cccc4ccccc34)cc2=O)S1(=O)=O (single isomer, unassigned) [Compound 015b, 2-ethyl-8-(naphthalen-1-ylmethyl)-6-oxo-9-(3-(trifluoromethyl)phenyl)-3,4-dihydro-2H,6H-pyrido[1,2-e][1,2,5]thiadiazine-4-carboxylic acid 1,1-dioxide] | – | – | – | – | – | – | IC50 ([1]; read-out: Reporter Assay Abs IC50 (activity range), median Abs IC50 in the CsgA reporter assay, class symbol): > 10 µM; IC50 ([1]; read-out: Reporter Assay Abs IC50, median Abs IC50 in the CsgA reporter assay, N/A = maximum expression reduction is <50% of control): 22.5 µM; CsgA ThT Assay (10 μM CsgA) % Control AUC at 1005 minutes, 25 μM (activity range) (E. coli CsgA; CsgA 10 μM, black plates, compound 25 μM, 1005 minutes, class symbol): (+++) (% control AUC of 11 to 31%); CsgA ThT Assay (10 μM CsgA) % Control AUC at 1005 minutes, 100 μM (activity range) (E. coli CsgA; CsgA 10 μM, black plates, compound 100 μM, 1005 minutes, class symbol): (+++) (% control AUC of 11 to 31%); CsgA ThT Assay (10 μM CsgA) % Control AUC at 1005 minutes, 25 μM (E. coli CsgA; mean AUC as % of DMSO control, CsgA 10 μM, black plates, compound 25 μM, 1005 minutes): 29%; CsgA ThT Assay (10 μM CsgA) % Control AUC at 1005 minutes, 100 μM (E. coli CsgA; mean AUC as % of DMSO control, CsgA 10 μM, black plates, compound 100 μM, 1005 minutes): 23% |
| CN1CC(C(=O)O)n2c(c(-c3cccc(C(F)(F)F)c3)c(Cc3cccc4ccccc34)c(N3CCNCC3)c2=O)S1(=O)=O (stereo not shown) [Compound 102, 2-methyl-8-(naphthalen-1-ylmethyl)-6-oxo-7-(piperazin-1-yl)-9-(3-(trifluoromethyl)phenyl)-3,4-dihydro-2H,6H-pyrido[1,2-e][1,2,5]thiadiazine-4-carboxylic acid 1,1-dioxide] | 5.4 µM | 4.6 to 10 µM | > 60% | 90% | 31 to 60% | 57% | – |
| Nc1c(Cc2cccc3ccccc23)c(-c2cccc(C(F)(F)F)c2)c2n(c1=O)C(C(=O)O)CO2 (stereo not shown) [Compound 069, 6-amino-7-(naphthalen-1-ylmethyl)-5-oxo-8-(3-(trifluoromethyl)phenyl)-2,3-dihydro-5H-oxazolo[3,2-a]pyridine-3-carboxylic acid] | 5.7 µM | 4.6 to 10 µM | 31 to 60% | 58% | 11 to 31% | 14% | – |
| CNC(=O)CN1CC(C(=O)O)n2c(c(-c3cccc(C(F)(F)F)c3)c(Cc3cccc4ccccc34)cc2=O)S1(=O)=O (stereo not shown) [Compound 049, 2-(2-(methylamino)-2-oxoethyl)-8-(naphthalen-1-ylmethyl)-6-oxo-9-(3-(trifluoromethyl)phenyl)-3,4-dihydro-2H,6H-pyrido[1,2-e][1,2,5]thiadiazine-4-carboxylic acid 1,1-dioxide] | 8.9 µM | 4.6 to 10 µM | > 60% | 74% | 31 to 60% | 35% | – |
| CCCN1CC(C(=O)O)n2c(c(-c3cccc(C(F)(F)F)c3)c(Cc3cccc4ccccc34)c(NCC3CCCC3)c2=O)S1(=O)=O (stereo not shown) [Compound 128, 7-((cyclopentylmethyl)amino)-8-(naphthalen-1-ylmethyl)-6-oxo-2-propyl-9-(3-(trifluoromethyl)phenyl)-3,4-dihydro-2H,6H-pyrido[1,2-e][1,2,5]thiadiazine-4-carboxylic acid 1,1-dioxide] | 2.2 µM | 1.3 to 4.5 µM | 11 to 31% | 29% | 11 to 31% | 28% | – |
| O=C(O)C1CNc2c(-c3cccc(C(F)(F)F)c3)c(C(F)(F)c3cccc4ccccc34)cc(=O)n21 (stereo not shown) [Compound 134, 7-(difluoro(naphthalen-1-yl)methyl)-5-oxo-8-(3-(trifluoromethyl)phenyl)-1,2,3,5-tetrahydroimidazo[1,2-a]pyridine-3-carboxylic acid] | 15.6 µM | – | – | – | – | – | IC50 [1, 3]: > 10 µM; remaining activity at 25 µM (E. coli CsgA; [4]): > 60%; remaining activity at 25 µM (E. coli CsgA; [5]): 92%; remaining activity at 100 µM (E. coli CsgA; [6]): > 60%; remaining activity at 100 µM (E. coli CsgA; [7]): 66% |
| O=C(O)C1CSc2c(-c3cccc(C(F)(F)F)c3)c(C(F)(F)c3cccc4ccccc34)nc(=O)n21 (stereo not shown) [Compound 063, 7-(difluoro(naphthalen-1-yl)methyl)-5-oxo-8-(3-(trifluoromethyl)phenyl)-2,3-dihydro-5H-thiazolo[3,2-c]pyrimidine-3-carboxylic acid] | 11.2 µM | > 10 µM | > 60% | 61% | 11 to 31% | 21% | – |
| COC(=O)C1CSc2c(-c3cccc(C(F)(F)F)c3)c(Cc3cccc4ccccc34)cc(=O)n21 (stereo not shown) [Compound 012, Methyl 7-(naphthalen-1-ylmethyl)-5-oxo-8-(3-(trifluoromethyl)phenyl)-2,3-dihydro-5H-thiazolo[3,2-a]pyridine-3-carboxylate] | 3.3 µM | 1.3 to 4.5 µM | > 60% | 108% | > 60% | 107% | – |
